Data published in US11760775B2, “Steroids and protein-conjugates thereof” (Regeneron Pharmaceuticals, Inc., priority 2016, dated 2023).
“And” between values parts separate entries of the source, which are not always exact repeats. Equal entries are not always repeated. Structures can show the parent of a compound that is named as a salt. Where two headings read alike, the source gives them in different places.

What was measured:
[1] = tested on: GR activation in 293/PRLR/GRE-Luc cells (HEK293/9xUAS-Luc2P/pBind-GR/PRLR-HA high cells); assay: GR co-activator luciferase reporter cell based assay in 293/PRLR/GRE-Luc cells; set-up: species or system human; details: for EC50: Homo sapiens
Procedure, shortened: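 EC50 was derived from a 10-point, four-parameter logistic fit of One-Glo luminescence. The reporter is driven by Gal4UAS through GR ligand-binding domain fused to Gal4 DBD in PRLR-expressing 293 cells, after ADC internalization or free steroid exposure. Activation below 10% of the free-payload maximum counts as minimal.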

[2] = tested on: GR activation in 293/GRE-Luc cells (293_PBind GR/UAS-Luc); assay: Luciferase reporter assay in antigen negative 293/GRE-Luc cells; format: cell-based, human; details: Homo sapiens, 72 h, read-out: EC50 in 293/GRE-Luc (M)
[3] = Pharmacokinetics of 4b and 6-I in mice (blood concentration-time); format: in vivo, C57BL/6j mice; details: in vivo
[4] = tested on: LPS-induced cytokine release (TNF-α); assay: Mouse model of LPS induced cytokine release (TNF-α in plasma); format: in vivo, C57BL/6j mice
CD11c+ splenic DCs = assay: Ex vivo LPS-induced cytokine production in mouse splenic CD11c+ dendritic cells; format: cell-based, C57Bl/6 mice; set-up: TNF-a / IL-12p70 / IL-1b / IL-6 / KC-GRO: unit not given here
Protocol: (§1) Supernatants were collected into 96-well round bottom tissue culture plates 24 hours post-LPS challenge and stored at −20° C. until further analysis. Cytokine concentrations in the supernatants were measured using a Pro-inflammatory Panel 1 (mouse) multiplex immunoassay kit (MesoScale Discovery, Cat #K15048D) according to manufacturer's instructions or Pro-inflammatory Panel 1 (human) multiplex immunoassay kit (MesoScale Discovery, Cat #K15049D). In brief, 50 μL/well of calibrators and samples (diluted in Diluent 1:2) were added to the plates pre-coated with capture antibodies and incubated at room temperature while shaking at 700 rpm for 2 hours. The plates were then washed 3 times with 1×PBS containing 0.05% (w/v) Tween-20, followed by the addition of 25 μL of Detection Antibody Solution diluted in Diluent 45. After 2-hour incubation at room temperature while shaking, the plates were washed 3 times, and 150 μL of 2× Read Buffer was added to each well. Electrochemiluminescence was immediately read on a MSD Spector® instrument. Data analysis was performed using GraphPad Prism™ software. Statistical significance within the groups was determined by one-way Anova with Turkey's multiple comparison post-test and standard error of mean (SEM±) calculated.

[5] = tested on: human monocyte derived-DC; assay: Ex vivo LPS-induced cytokine production in human monocyte derived DCs; format: cell-based; set-up: IL-6 / IL-8 / TNF-a / IL-12p70 / IL-1b: unit not given here
Protocol: The complete-RPMI with IL4 and GM-CSF was changed every three days. […]
as §1

[6] = male, C57BL/6, mouse, ip, 1 mg/kg

CCCC1O[C@@H]2C[C@H]3[C@@H]4C[C@H](F)C5=CC(=O)C=C[C@]5(C)[C@@]4(F)[C@@H](O)C[C@]3(C)[C@]2(C(=O)CN)O1 (stereo partly drawn) [Compound 4b, (1S,2S,4R,6R,8S,9S,11S,12R,13S,19S)-8-(2-Aminoacetyl)-12,19-difluoro-11-hydroxy-9,13-dimethyl-6-propyl-5,7-dioxapentacyclo[10.8.0.0^2,90.0^4,80.0^13,18]icosa-14,17-dien-16-one; trifluoroacetic Acid Salt]
EC50 of GRE-Luc activation ([1]; 293/PRLR/GRE-Luc cells, 72 hours): better IC50 value than Budesonide and Dexamethasone | EC50 ([1]; HEK293, read-out: EC50 in 293/PRLR/GRE-Luc (M), 72 hrs of incubation): < 5e-09 M | EC50 ([1]; HEK293, read-out: HEK293/9xUAS-Luc2P/pBind-GR/PRLR-HA high cells EC50): < 1e-08 M | HEK293/9xUAS-Luc2P/pBind-GR/PRLR-HA high cells activation relative to Budesonide ([1]; fold activation vs Budesonide): Full | EC50 [2]: < 5e-09 M | AUC(0-inf) [3, 6]: 89.2 ng·h/mL | AUC(0-t) [3, 6]: 84.6 ng·h/mL | Cmax [3, 6]: 39.4 ng/mL | half-life ([3]; mouse, IP, 1 mg/Kg in male C57BL/6 mice, Mean, read-out: Terminal t1/2 (converted)): 1.69 h | Inhibition of TNF-α production ([4]; 5 mpk ip before LPS challenge, plasma at 2 hr time point): significantly inhibited TNF-α production | TNF-a ([4]; plasma 2 hr post LPS challenge, 5MPK ip (−2 h) prior to LPS, individual mice, trifluoroacetic Acid Salt): 56.5 pg/mL and 10.4 pg/mL and 274.8 pg/mL | IL-1b (CD11c+ splenic DCs; 10 nM + LPS): 6.32 ± 0.83 | IL-6 (CD11c+ splenic DCs; 10 nM + LPS): 184.54 ± 21.59 | IL-12p70 (CD11c+ splenic DCs; 10 nM + LPS): 3.84 ± 2.88 | KC-GRO (CD11c+ splenic DCs; 10 nM + LPS): 186.57 ± 15.71 | TNF-a (CD11c+ splenic DCs; 10 nM + LPS): 146.46 ± 18.66 | LPS-induced cytokine responses in CD11c+ DCs (CD11c+ splenic DCs; 10 nM and 100 nM for 24 hours before LPS 10 ng/mL): significantly decreased LPS-induced cytokine responses | IL-1b (CD11c+ splenic DCs; 10 nM, no LPS): 5.22 ± 0.11 | IL-6 (CD11c+ splenic DCs; 10 nM, no LPS): 47.90 ± 4.55 | IL-12p70 (CD11c+ splenic DCs; 10 nM, no LPS): 5.24 ± 1.12 | KC-GRO (CD11c+ splenic DCs; 10 nM, no LPS): 62.85 ± 6.51 | TNF-a (CD11c+ splenic DCs; 10 nM, no LPS): 0 ± 0 | IL-1b (CD11c+ splenic DCs; 100 nM + LPS): 4.80 ± 0.99 | IL-6 (CD11c+ splenic DCs; 100 nM + LPS): 201.10 ± 20.96 | IL-12p70 (CD11c+ splenic DCs; 100 nM + LPS): 8.21 ± 2.79 | KC-GRO (CD11c+ splenic DCs; 100 nM + LPS): 211.96 ± 25.23 | TNF-a (CD11c+ splenic DCs; 100 nM + LPS): 193.29 ± 25.56 | IL-1b (CD11c+ splenic DCs; 100 nM, no LPS): 5.65 ± 0.18 | IL-6 (CD11c+ splenic DCs; 100 nM, no LPS): 63.87 ± 4.78 | IL-12p70 (CD11c+ splenic DCs; 100 nM, no LPS): 6.43 ± 0.67 | KC-GRO (CD11c+ splenic DCs; 100 nM, no LPS): 84.30 ± 6.06 | TNF-a (CD11c+ splenic DCs; 100 nM, no LPS): 0 ± 0 | Pro-inflammatory cytokine production ([5]; Condition 1: entire 7-day conditioning period): significantly reduced pro-inflammatory cytokine production | IL-1b ([5]; Condition 1, 10 nM + LPS): 1.18 ± 0.11 | IL-6 ([5]; Condition 1, 10 nM + LPS): 325.46 ± 2.12 | IL-8 ([5]; Condition 1, 10 nM + LPS): 8670.27 ± 268.97 | IL-12p70 ([5]; Condition 1, 10 nM + LPS): 1.05 ± 0.08 | TNF-a ([5]; Condition 1, 10 nM + LPS): 117.75 ± 6.63 | IL-1b ([5]; Condition 1, 10 nM, no LPS): 0.61 ± 0.007 | IL-6 ([5]; Condition 1, 10 nM, no LPS): 2.23 ± 0.002 | IL-8 ([5]; Condition 1, 10 nM, no LPS): 166.99 ± 2.01 | IL-12p70 ([5]; Condition 1, 10 nM, no LPS): 0.58 ± 0.002 | TNF-a ([5]; Condition 1, 10 nM, no LPS): 1.28 ± 0.087 | IL-1b ([5]; Condition 1, 100 nM + LPS): 1.01 ± 0.07 | IL-6 ([5]; Condition 1, 100 nM + LPS): 159.32 ± 7.31 | IL-8 ([5]; Condition 1, 100 nM + LPS): 8461.59 ± 522.77 | IL-12p70 ([5]; Condition 1, 100 nM + LPS): 0.50 ± 0.19 | TNF-a ([5]; Condition 1, 100 nM + LPS): 123.31 ± 0.11 | IL-1b ([5]; Condition 1, 100 nM, no LPS): 0.641 ± 0.15 | IL-6 ([5]; Condition 1, 100 nM, no LPS): 3.45 ± 0.13 | IL-8 ([5]; Condition 1, 100 nM, no LPS): 136.50 ± 0.87 | IL-12p70 ([5]; Condition 1, 100 nM, no LPS): 0.66 ± 0.03 | TNF-a ([5]; Condition 1, 100 nM, no LPS): 1.46 ± 0.10 | Production of IL12p70, IL6 and TNF-α ([5]; Condition 2: conditioning of mature monocyte-derived DCs): significantly decreased the production of IL12p70, IL6 and TNF-α | IL-1b ([5]; Condition 2, 10 nM + LPS): 30.10 ± 0.93 | IL-6 ([5]; Condition 2, 10 nM + LPS): 5124.75 ± 114.8 | IL-8 ([5]; Condition 2, 10 nM + LPS): 3003.52 ± 212.16 | IL-12p70 ([5]; Condition 2, 10 nM + LPS): 4.81 ± 0.63 | TNF-a ([5]; Condition 2, 10 nM + LPS): 874.18 ± 30.46 | IL-1b ([5]; Condition 2, 10 nM, no LPS): 0.59 ± 0.005 | IL-6 ([5]; Condition 2, 10 nM, no LPS): 12.87 ± 0.312 | IL-8 ([5]; Condition 2, 10 nM, no LPS): 274.75 ± 1.75 | IL-12p70 ([5]; Condition 2, 10 nM, no LPS): 0.60 ± 0.01 | TNF-a ([5]; Condition 2, 10 nM, no LPS): 2.03 ± 0.14 | IL-1b ([5]; Condition 2, 100 nM + LPS): 18.20 ± 1.04 | IL-6 ([5]; Condition 2, 100 nM + LPS): 4680.03 ± 104.90 | IL-8 ([5]; Condition 2, 100 nM + LPS): 2735.36 ± 87.88 | IL-12p70 ([5]; Condition 2, 100 nM + LPS): 2.03 ± 0.16 | TNF-a ([5]; Condition 2, 100 nM + LPS): 696.26 ± 75.10 | IL-1b ([5]; Condition 2, 100 nM, no LPS): 0.59 ± 0.03 | IL-6 ([5]; Condition 2, 100 nM, no LPS): 11.25 ± 0.82 | IL-8 ([5]; Condition 2, 100 nM, no LPS): 317.46 ± 14.83 | IL-12p70 ([5]; Condition 2, 100 nM, no LPS): 0.61 ± 0.02 | TNF-a ([5]; Condition 2, 100 nM, no LPS): 1.37 ± 0.251
